Laboratory results from patent US8865230B2, “Compositions and methods for treating parasitic infections” (TyraTech, Inc., priority 2006, dated 2014).

Key:
Tyramine receptor (TyrR) [1] = molecular target: T1, Tyramine receptor (TyrR) (Drosophila melanogaster, UniProt P22270); experiment: Effect on intracellular cAMP in cells expressing TyrR (Example 14); assay type: cell-based
T1 construct: expressed in transfected cells
T1 sequence (P22270 27-601): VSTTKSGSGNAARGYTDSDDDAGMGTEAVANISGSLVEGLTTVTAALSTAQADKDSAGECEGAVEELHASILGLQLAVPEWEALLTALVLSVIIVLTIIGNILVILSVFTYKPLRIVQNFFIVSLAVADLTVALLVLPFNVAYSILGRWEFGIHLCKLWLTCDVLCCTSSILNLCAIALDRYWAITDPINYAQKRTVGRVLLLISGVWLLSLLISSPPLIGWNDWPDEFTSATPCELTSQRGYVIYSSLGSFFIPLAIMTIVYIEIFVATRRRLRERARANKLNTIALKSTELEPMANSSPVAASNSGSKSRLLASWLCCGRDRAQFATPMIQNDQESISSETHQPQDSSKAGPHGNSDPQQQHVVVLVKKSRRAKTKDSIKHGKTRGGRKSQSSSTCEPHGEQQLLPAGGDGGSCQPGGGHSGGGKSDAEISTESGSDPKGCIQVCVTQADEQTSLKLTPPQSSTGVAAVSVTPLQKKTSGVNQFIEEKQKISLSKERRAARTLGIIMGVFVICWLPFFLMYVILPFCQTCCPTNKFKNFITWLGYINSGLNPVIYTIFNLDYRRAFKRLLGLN

Tyramine receptor (TyrR) [2] = molecular target: T1, Tyramine receptor (TyrR); experiment: Effect on intracellular Ca2+ in cells expressing TyrR (Example 14); assay type: cell-based
Hymenolepis nana = experiment: H. nana in vivo, infected mice treated orally with single test agents Rx (Example 1); details: 400 mg/kg orally daily for 5 days
Tyramine receptor (TyrR) [3] = molecular target: T1, Tyramine receptor (TyrR); experiment: Tyramine receptor binding affinity in cells expressing TyrR (Example 14)

## C=CCc1ccc(O)c(OC)c1 [Eugenol]
Tyramine receptor (TyrR) [1]
  Effects Intracellular cAMP (Yes or No): No
Tyramine receptor (TyrR) [2]
  Effects Intracellular Ca2+ (Yes or No): Yes

## Cc1ccc(C(C)C)cc1O [Rx 4, carvacrol]
Hymenolepis nana
  Egg Count (X ± SD), During Treatment 1st Day: 5 ± 0.6
  Egg Count (X ± SD), During Treatment 3rd Day: 1 ± 1.9

## CC(C)=CCC/C(C)=C/CO [Rx 5, geraniol]
Hymenolepis nana
  Egg Count (X ± SD), During Treatment 1st Day: 14 ± 13.9
Tyramine receptor (TyrR) [1]
  Effects Intracellular cAMP (Yes or No): Yes
Tyramine receptor (TyrR) [2]
  Effects Intracellular Ca2+ (Yes or No): Yes

## CC12CCC(CC1)C(C)(C)O2 [Rx 6, cineol]
Hymenolepis nana
  Egg Count (X ± SD), During Treatment 1st Day: 5 ± 9.5
  Egg Count (X ± SD), During Treatment 3rd Day: 1 ± 1.2
Tyramine receptor (TyrR) [1]
  Effects Intracellular cAMP (Yes or No): Yes
Tyramine receptor (TyrR) [2]
  Effects Intracellular Ca2+ (Yes or No): Yes

## CC=Cc1ccc(OC)cc1 [anethole]
Tyramine receptor (TyrR) [3]
  Tyramine Receptor Binding Affinity (High or Low): Low
Tyramine receptor (TyrR) [1]
  Effects Intracellular cAMP (Yes or No): Yes
Tyramine receptor (TyrR) [2]
  Effects Intracellular Ca2+ (Yes or No): Yes

## OCc1ccccc1 [benzyl alcohol]
Tyramine receptor (TyrR) [1]
  Effects Intracellular cAMP (Yes or No): Yes
Tyramine receptor (TyrR) [2]
  Effects Intracellular Ca2+ (Yes or No): No

## OCC=Cc1ccccc1 [cinnamyl alcohol]
Tyramine receptor (TyrR) [1]
  Effects Intracellular cAMP (Yes or No): No
Tyramine receptor (TyrR) [2]
  Effects Intracellular Ca2+ (Yes or No): Yes

## C=C(C)[C@H]1CC=C(C)CC1 [d-limonene]
Tyramine receptor (TyrR) [1]
  Effects Intracellular cAMP (Yes or No): Yes and No
Tyramine receptor (TyrR) [2]
  Effects Intracellular Ca2+ (Yes or No): Yes

## C=CC(C)(O)CCC=C(C)C (stereo not shown) [linalool]
Tyramine receptor (TyrR) [3]
  Tyramine Receptor Binding Affinity (High or Low): high
Tyramine receptor (TyrR) [1]
  Effects Intracellular cAMP (Yes or No): No
Tyramine receptor (TyrR) [2]
  Effects Intracellular Ca2+ (Yes or No): Yes

## Cc1ccc(C(C)C)cc1 [p-cymene]
Tyramine receptor (TyrR) [3]
  Tyramine Receptor Binding Affinity (High or Low): low
Tyramine receptor (TyrR) [1]
  Effects Intracellular cAMP (Yes or No): Yes
Tyramine receptor (TyrR) [2]
  Effects Intracellular Ca2+ (Yes or No): Yes

## CCC(=O)OCCc1ccccc1 [phenethyl proprionate]
Tyramine receptor (TyrR) [1]
  Effects Intracellular cAMP (Yes or No): Yes
Tyramine receptor (TyrR) [2]
  Effects Intracellular Ca2+ (Yes or No): No

## CCCCCCCCCCCCOS(=O)(=O)[O-].[Na+] [sodium lauryl sulfate]
Tyramine receptor (TyrR) [1]
  Effects Intracellular cAMP (Yes or No): No
Tyramine receptor (TyrR) [2]
  Effects Intracellular Ca2+ (Yes or No): No

## CCC(C)(O)CCCC(C)C (stereo not shown) [tetrahydrolinalool]
Tyramine receptor (TyrR) [1]
  Effects Intracellular cAMP (Yes or No): Yes
Tyramine receptor (TyrR) [2]
  Effects Intracellular Ca2+ (Yes or No): Yes

## Cc1ccc(C(C)C)c(O)c1 [thymol]
Tyramine receptor (TyrR) [3]
  Tyramine Receptor Binding Affinity (High or Low): high
Tyramine receptor (TyrR) [1]
  Effects Intracellular cAMP (Yes or No): No
Tyramine receptor (TyrR) [2]
  Effects Intracellular Ca2+ (Yes or No): Yes

## CC1=CCC2CC1C2(C)C (stereo not drawn) [α-pinene]
Tyramine receptor (TyrR) [1]
  Effects Intracellular cAMP (Yes or No): No
Tyramine receptor (TyrR) [2]
  Effects Intracellular Ca2+ (Yes or No): No
